ChEMBL document CHEMBL4765358, “Discovery of highly potent and selective antiparasitic new oxadiazole and hydroxy-oxindole small molecule hybrids” (Eur J Med Chem, 2020)

How the values were obtained:
Leishmania infantum = experiment: Antileishmanial activity against Leishmania infantum MHOM/MA/67/ITMAP-263 infected in THP1 cells assessed as reduction in parasite growth incubated for 120 hrs by Giemsa staining based inverted microscopic analysis; assay type: functional, organism-based; conditions: MHOM/MA/67/ITMAP-263, THP-1, 120 h
Trypanosoma cruzi [1] = experiment: Antitrypanosomal activity against Trypanosoma cruzi (MHOM/CH/00/Tulahuen C2, lacZ) amastigotes infected in HFF-1 cells assessed as reduction in parasite growth at 300 uM incubated for 120 hrs by CPRG/Igepal substrate based photometric method relative to control; assay type: functional; conditions: MHOM/CH/00/Tulahuen C2, HFF-1
[2] = Cytotoxicity against human HFF-1 cells assessed as reduction in cell viability incubated for 120 hrs by MTS assay; assay type: cell-based
Trypanosoma cruzi [3] = experiment: Antitrypanosomal activity against Trypanosoma cruzi (MHOM/CH/00/Tulahuen C2, lacZ) amastigotes infected in HFF-1 cells assessed as reduction in parasite growth at 150 uM incubated for 120 hrs by CPRG/Igepal substrate based photometric method relative to control; assay type: functional; conditions: MHOM/CH/00/Tulahuen C2, HFF-1
Trypanosoma cruzi [4] = experiment: Antitrypanosomal activity against Trypanosoma cruzi (MHOM/CH/00/Tulahuen C2, lacZ) amastigotes infected in HFF-1 cells assessed as reduction in parasite growth at 75 uM incubated for 120 hrs by CPRG/Igepal substrate based photometric method relative to control; assay type: functional; conditions: MHOM/CH/00/Tulahuen C2, HFF-1
[5] = Cytotoxicity against human HepG2 cells assessed as reduction in cell viability incubated for 120 hrs by MTS assay; assay type: cell-based
Trypanosoma cruzi [6] = experiment: Antitrypanosomal activity against Trypanosoma cruzi (MHOM/CH/00/Tulahuen C2, lacZ) amastigotes infected in HFF-1 cells assessed as reduction in parasite growth incubated for 120 hrs by CPRG/Igepal substrate based photometric method; assay type: functional, organism-based; conditions: MHOM/CH/00/Tulahuen C2, HFF-1, 120 h

SMILES	IC50 (Leishmania infantum)	inhibition at 300 µM (Trypanosoma cruzi [1])	CC50 at 120 h [2]	inhibition at 150 µM (Trypanosoma cruzi [3])	inhibition at 75 µM (Trypanosoma cruzi [4])	CC50 at 120 h [5]	IC50 (Trypanosoma cruzi [6])
C=C(c1nc(-c2ccccc2)no1)C1(O)C(=O)N(CC)c2ccccc21 (configuration not stated)	7.28 µM	100%	> 64 µM	100%	100%	26.8 µM	2.3 µM
C=C(c1nc(-c2ccccc2)no1)C(O)c1cccnc1 (configuration not stated)	8.51 µM	100%	> 64 µM	99.6%	89.5%	19 µM	2.2 µM
C=C(c1nc(-c2ccccc2)no1)C1(O)C(=O)N(CC)c2ccc([N+](=O)[O-])cc21 (configuration not stated)	5.13 µM	100%	> 64 µM	85.4%	78.9%	3.61 µM	> 6.7 µM
C=C(c1nc(-c2ccccc2)no1)C1(O)C(=O)N(CC)c2ccc(Br)cc21 (configuration not stated)	3.73 µM	100%	> 64 µM	100%	100%	11.5 µM	2.2 µM
C=C(c1nc(-c2ccccc2)no1)C(O)c1cccc(Cl)c1 (configuration not stated)	7.76 µM	100%	> 64 µM	98.6%	90.5%	20.2 µM	6.2 µM
C=CCOC1(C(=C)c2nc(-c3ccccc3)no2)C(=O)N(CC)c2c(Br)cccc21 (configuration not stated)	4.86 µM	100%	20.3 µM	100%	93.8%	60.6 µM	6.3 µM
